Laboratory results reported in patent US20160136123A1, “TREATMENT OF AUTOPHAGY-RELATED DISORDERS” (STC.UNM, priority 2013, published 2016).

Assays:
HeLa cells = test: LC3-II conversion immunoblot (LC3-II/actin) with or without bafilomycin A1 after oleic acid pretreatment and starvation; assay type: cell-based, Human
Experimental: Panals (A) and (B): HeLa cells stably expressing mRFP-GFP-LC3 were treated for 20 h with BSA alone (BSA) or with BSA-oleic acid (OA; 500 μM OA) and then starved in EBSS for 90 min (Starv) or incubated in full medium (Full). A, Visualization of lipid droplet accumulation. Cells were treated as in A and lipid droplets stained with Bodipy 493/503. B, High content image analysis. Program (iDev)-assigned masks: blue outline, valid primary objects (cells); green mask, GFP puncta. (C) number of GFP+ puncta per cell from experiments illustrated in A. (D) RFP+ puncta per cell from experiments illustrated in A. High content analysis data: means±s.e. (n=3, where n represents separate experiments; each experimental point in separate experiments contained >500 cells identified by the program as valid primary objects); *, p<0.05 (t-test). (E) HeLa cells were treated with 0, 100, 500 or 1000 μM oleic acid (OA) using BSA as a carrier (BSA-OA) for 20 h, followed by 90 min starvation in EBSS with or without Bafilomycin A1 (BafA1), and LC3-II/actin ratios determined by immunoblotting and densitometry. (F) HeLa cells were treated for 20 h with BSA alone or with BSA-OA (500 μM OA), followed by starvation in EBSS for 90 min with or without Bafilomycin A1 (BafA1) and LC3-II/actin ratios determined by immunoblotting and densitometry. Immunobloting data: means means±s.e., *, p<0.05 (t-test).
Addition of oleic acid (OA) is commonly used to increase cellular LD content. […] The enhancement was detected at both autophagy initiation stage (FIG. 1C; GFP-LC3) and autophagosomal maturation (FIG. 1D; mRFP-GFP), as determined by the acidification-sensitive GFP and acidification-insenstive mRFP probes used to distinguish early autophagosomes and autolysosomes, respectively. […]
Antibodies against endogenous proteins LC3 (MBL), P62 (BD Transduction), Atg16L1 (Cosmo Bio) were used for indirect immunofluorescence analysis. […] SlideBook morphometric analysis software 5.0 (Intelligent Imaging Innovations) was used to quantify the colocalization between Atg16L1 or DAG and lipid droplets. […]

[1] = tested on: HeLa cells stably expressing mRFP-GFP-LC3; test: High content imaging of LC3 puncta after oleic acid pretreatment; assay type: cell-based, Human; conditions: 500 μM BSA-oleic acid 20 h, then full medium or EBSS starvation 90 min
Experimental: Panals (A) and (B): HeLa cells stably expressing mRFP-GFP-LC3 were treated for 20 h with BSA alone (BSA) or with BSA-oleic acid (OA; 500 μM OA) and then starved in EBSS for 90 min (Starv) or incubated in full medium (Full). A, Visualization of lipid droplet accumulation. Cells were treated as in A and lipid droplets stained with Bodipy 493/503. B, High content image analysis. Program (iDev)-assigned masks: blue outline, valid primary objects (cells); green mask, GFP puncta. (C) number of GFP+ puncta per cell from experiments illustrated in A. (D) RFP+ puncta per cell from experiments illustrated in A. High content analysis data: means±s.e. (n=3, where n represents separate experiments; each experimental point in separate experiments contained >500 cells identified by the program as valid primary objects); *, p<0.05 (t-test). (E) HeLa cells were treated with 0, 100, 500 or 1000 μM oleic acid (OA) using BSA as a carrier (BSA-OA) for 20 h, followed by 90 min starvation in EBSS with or without Bafilomycin A1 (BafA1), and LC3-II/actin ratios determined by immunoblotting and densitometry. (F) HeLa cells were treated for 20 h with BSA alone or with BSA-OA (500 μM OA), followed by starvation in EBSS for 90 min with or without Bafilomycin A1 (BafA1) and LC3-II/actin ratios determined by immunoblotting and densitometry. Immunobloting data: means means±s.e., *, p<0.05 (t-test). […]

autophagic maturation = conditions: e.g. 1 mM, reference [27]; cited from earlier work
[2] = tested on: HeLa cells stably expressing mRFP-GFP-LC3B; test: TRIM family screen control: GFP-LC3B puncta area after pp242; assay type: cell-based, Human; conditions: pp242 for 2 h, versus vehicle
Text: Referring to FIG. 1A/A HeLa cells stably expressing mRFP-GFP-LC3B were subjected to TRIM knockdowns, treated with pp242, and imaged to detect nuclear stain (blue) and GFP signal (green). Top, non-targeting siRNA-transfected cells treated with carrier (DMSO) or pp242. White lines, cell borders. Red, LC3B puncta borders. Bottom, representative images of cells subjected to knockdown of TRIM45 and TRIM2, both treated with pp242. (B) Measurement of average area of GFP-LC3B area per cell from cells treated as in (A) (data from multiple 96-well plates with identical siRNA arrangements represent means and ±SE).
Cells were exposed to virus at 4° C. for 1 hour to allow binding but not entry. […] Samples were prepared for analysis of p24, reverse transcriptase, or proviral DNA. […] HIV-1 RT was determined according to the manufacturer's protocol (Enz Chek, Invitrogen). HIV-1 proviral DNA was quantified as previously described (Campbell et al., 2004). […]
HeLa cells stably expressing mRFP-GFP-LC3B were cultured in 96-well plates containing siRNAs against 67 human TRIMs and transfection reagent (Dharmacon). […] Automated image collection of >500 cells (distributed over 49 or fewer fields per well per siRNA knockdown per plate) were machine-analyzed using preset scanning parameters and object mask definition (iDEV software). […] When results were expressed as puncta area per cell, the units corresponded to μm^2/cell.

[3] = tested on: 293T cells and HeLa cells; test: TRIM5α overexpression: LC3-II abundance (bafilomycin A1 flux assay) and LC3 puncta by high content analysis; assay type: cell-based, Human; conditions: GFP-tagged protein overexpressed, compared with GFP alone; with or without bafilomycin A1
Text: FIG. 2A/A illustrates mapping of the p62/Sequestosome 1 region interacting with RhTRIM5α. Schematic (left): domain organization of p62 and deletion/point mutation constructs employed to analyze interactions with RhTRIM5α (right panel). TR, TRIM5α and TRAF6 binding region; NLS, nuclear localization signal; NES, nuclear export signal; LIR, LC3-interacting region; KIR, KEAP1-interacting region. Analysis (right): Myc-RhTRIM5α was radiolabeled with [^35S] methionine by in vitro translation and analyzed by GST pulldown assays with GST-p62 fusion proteins. Top, autoradiogram. Bottom, Coomassie Brilliant Blue (CBB)-stained SDS-polyacrylamide gel with GST-p62 proteins. (B) Effects of TRIM5α knockdown in HeLa cells on GFP-LC3 puncta (area/cell) under basal (DMSO control) and autophagy-inducing (pp242) conditions. HuT5a, human TRIM5α; Scr, Scrambled control. […]
We first tested p62 and TRIM5α interaction (FIG. S2A) and co-localization (FIG. S2B), and mapped the TRIM5α-binding domain on p62 to the region demarcated by residues 170-256 (FIG. 2A). […] When TRIM5α was knocked down, fewer LC3 puncta were detected ([…]) and LC3-II yields (FIG. 2A/B,C) upon induction with pp242 were reduced. […] In these experiments, high content analysis was used to differentiate GFP-TRIM5α-transfected or GFP-transfected cells from untransfected cells based on their green fluorescence. […]

With `CCCCCCCC/C=C\CCCCCCCC(=O)O` [OA, oleic acid] as the molecule, how does the “OA concentration optimal for enhancing starvation-induced autophagy (LC3-II/actin titration)” value (HeLa cells; 0, 100, 500 or 1000 μM OA 20 h, 90 min starvation in EBSS with or without bafilomycin A1) read?
Its value is 500 µM.

And the “effect of OA pretreatment in the bafilomycin A1 inhibition assay (LC3-II/actin)” value (HeLa cells; 500 μM BSA-OA 20 h, EBSS 90 min with or without bafilomycin A1)?
Its value is “enhanced cellular capacity for initiation of autophagy upon starvation”.

And the “effect of 1 mM OA on starvation-induced autophagy (LC3-II/actin titration)” value (HeLa cells; 1 mM OA 20 h, 90 min starvation in EBSS)?
The value was “either a plateau or potentially inhibitory effects on autophagy”.

What about the “effect of increase in lipid droplets following OA pretreatment on autophagy (GFP+ and RFP+ LC3 puncta per cell)” value [1] of the same molecule?
Its value is “enhanced basal and induced autophagy”.

What about the “effect of high concentrations of OA on autophagic maturation” value (autophagic maturation) of the same molecule?
Its value is “inhibitory to autophagic maturation”.

For `CC(C)n1nc(-c2cc3cc(O)ccc3[nH]2)c2c(N)ncnc21` [pp242], which “induction of GFP-LC3B puncta area” value [2] is on record?
Its value is 17 fold.

Which “effect of TRIM5α overexpression on autophagy (LC3-II, LC3 puncta)” value [3] does the source give for “C15A mutant of RhTRIIVI5α: catalytically inactive (E3 ligase) C15A mutant of rhesus TRIM5α” here?
Its value is “induced autophagy comparably to wt RhTRIM5α”.
